According to US20170231929A1, “METHOD FOR ENHANCING IMMUNE CELL FUNCTION AND METHOD FOR ASSESSING IMMUNE CELL MULTIFUNCTIONALITY” (NATIONAL UNIVERSITY CORPORATION OKAYAMA UNIVERSITY, priority 2014, published 2017):
“And” between values parts separate entries of the source, which are not always exact repeats. Equal values may be shown once. “Also recorded” adds a separate entry of the source.

Test system: CD8^+T cells
Experiment: Multifunctionality of CD8^+T cells of healthy subjects after metformin treatment of PBMC (flow cytometer)
Type: cell-based, human
Protocol: 1. Peripheral blood was obtained from a test subject, and PBMC was separated by a density-gradient centrifugation using a lymphocyte-separating reagent Ficoll-Paque® (GE Healthcare). 3 mL of Ficoll-Paque® was dispensed in a 15-mL tube. 8 mL of the peripheral blood was gently placed on the reagent. At this time, care should be taken not to mix Ficoll-Paque® with the peripheral blood. Centrifugation was performed at 400 g for 30 minutes, thereby separating PBMC. 2. The separated PBMC was preserved in a −150° C. freezer or liquid nitrogen using Bambang Car cell preservation liquid by adjusting the cell number to 2.0×10^6 cell/tube. 3. In the test, the thawed PBMC was cultured for 1 to 10 hours in the presence or absence of […]. The culture was performed using a 24-well plate, and the cell number was adjusted to about 5.0×10^5 cell/well. 4. The cells were collected after 1 to 10 hours, washed with medium, and cultured in the presence of a cell activation reagent (potent nanomolar activator of protein kinase C (PMA, 50 ng/mL), ionomycin (1 μM)) for 6 hours, thereby non-specifically stimulating T cells. At this time, BD Gorgi Stop™ was added to keep the produced cytokines inside the cells. 5. The cells were isolated and washed twice with a cell-staining buffer. First, staining of CD8, PD-1, Tim-3, which are molecules expressed on the T cell surface, was performed. In the staining, a staining buffer was added in an amount of 50 μL per sample. The culture was performed at 4° C. for 30 minutes. 6. The cells were collected and washed twice with a cell-staining buffer. 500 μL of BD Cytofix/Cytoperm was added and cultured at 4° C. for 30 minutes. 7. The cells were collected and washed twice with BD Perm/Wash™. Staining of cytokines IL-2, TNFα, and IFNγ was performed. In the staining, BD Perm/Wash™ was added in an amount of 50 μL per sample. The culture was performed at 4° C. for 30 minutes. 8. The cells were collected and washed twice with BD Perm/Wash™, and 200 μL of BD Perm/Wash™ was added. 9. Analysis was performed using a FACSCanto™ II flow cytometer (Becton, Dickinson and Company).
Among the PBMC treated with PMA/ionomycin in the method shown in (2) above, first, a gate was applied to CD8^+T cells using a FACSCanto™ II flow cytometer (Becton, Dickinson and Company), and then […] were removed by FSC-A and FSC-H. Using parameters FSC-A and SSC-A, a gate was applied to a lymphocyte group, thereby analyzing expression of PD-1 and Tim-3. Further, intracellular cytokines IFNγ, TNFα, and IL-2 were stained, and multifunctionality of CD8^+T cells contained in the PBMC was analyzed (FIG. 1).
PBMC obtained from healthy subjects (N=10) was cultured for an hour in the presence or absence of metformin by the method shown in (2). After metformin was removed, the PBMC was subjected to stimulating culture with PMA/ionomycin for 6 hours by the method shown in (3). Among the resulting PBMC, CD8^+T cells capable of simultaneously producing three kinds of cytokines, i.e., IFNγ, TNFα, and IL-2, were detected. The CD8^+T cells untreated with metformin were determined to be 0.11%, and the CD8^+T cells treated with metformin were determined to be 0.09% (FIG. 2). Accordingly, it was judged that multifunctionality of CD8^+T cells was not increased by a metformin treatment in healthy subjects.
In the PBMC of healthy subjects treated as above, the ratios of CD8^+T cells producing three kinds of cytokines (IFNγ/TNFα/IL-2), CD8^+T cells producing two kinds of cytokines (IFNγ/TNFα or IFNγ/IL-2), and CD8^+T cells producing one kind of cytokine (IFNγ) to the entire CD8^+T cells were calculated and shown in Table 1. The calculation results were compared between the metformin-untreated group (control) and the metformin-treated group (metformin).

[1] = PD-1+, Tim-3+, Healthy Subjects, subjects/total
[2] = PD-1+, Tim-3−, Healthy Subjects, subjects/total
[3] = PD-1−, Tim-3+, Healthy Subjects, subjects/total
[4] = PD-1−, Tim-3−, Healthy Subjects, subjects/total
[5] = Total CD8T, Healthy Subjects, subjects/total
[6] = healthy subjects, PBMC cultured an hour with metformin, then PMA/ionomycin 6 hours, each table row = one subject
[7] = healthy subjects, each table row = one subject
[8] = total CD8^+T cells, healthy subjects

In the case of CN(C)C(=N)N=C(N)N [metformin], the “Decrease, IFNγ 1-cytokine-producing cell” value [1] was 4/10, the “Decrease, IFNγ/IL-2 2-cytokine-producing cell” value [1] was 4/10 and the “Decrease, IFNγ/TNFα 2-cytokine-producing cell” value [1] was 6/10. The “Decrease, IFNγ/TNFα/IL2 3-cytokine-producing cell” value [1] was 1/10, the “Increase, IFNγ 1-cytokine-producing cell” value [1] was 6/10 and the “Increase, IFNγ/IL-2 2-cytokine-producing cell” value [1] was 2/10. The “Increase, IFNγ/TNFα 2-cytokine-producing cell” value [1] was 3/10, the “Increase, IFNγ/TNFα/IL2 3-cytokine-producing cell” value [1] was 3/10 and 5/10 and the “No Change, IFNγ 1-cytokine-producing cell” value [1] was 0/10. For the same compound, the “No Change, IFNγ/IL-2 2-cytokine-producing cell” value [1] was 4/10, the “No Change, IFNγ/TNFα 2-cytokine-producing cell” value [1] was 1/10 and the “No Change, IFNγ/TNFα/IL2 3-cytokine-producing cell” value [1] was 4/10. For the same compound, the “Decrease, IFNγ 1-cytokine-producing cell” value [2] was 5/10, the “Decrease, IFNγ/IL-2 2-cytokine-producing cell” value [2] was 6/10 and the “Decrease, IFNγ/TNFα 2-cytokine-producing cell” value [2] was 4/10. The “Decrease, IFNγ/TNFα/IL2 3-cytokine-producing cell” value [2] was 5/10, the “Increase, IFNγ 1-cytokine-producing cell” value [2] was 2/10 and the “Increase, IFNγ/IL-2 2-cytokine-producing cell” value [2] was 3/10. The “Increase, IFNγ/TNFα 2-cytokine-producing cell” value [2] was 3/10, the “Increase, IFNγ/TNFα/IL2 3-cytokine-producing cell” value [2] was 3/10 and the “No Change, IFNγ 1-cytokine-producing cell” value [2] was 3/10. The “No Change, IFNγ/IL-2 2-cytokine-producing cell” value [2] was 1/10, the “No Change, IFNγ/TNFα 2-cytokine-producing cell” value [2] was 3/10 and the “No Change, IFNγ/TNFα/IL2 3-cytokine-producing cell” value [2] was 2/10. The “Decrease, IFNγ 1-cytokine-producing cell” value [3] was 6/10, the “Decrease, IFNγ/IL-2 2-cytokine-producing cell” value [3] was 4/10 and the “Decrease, IFNγ/TNFα 2-cytokine-producing cell” value [3] was 5/10. For the same compound, the “Decrease, IFNγ/TNFα/IL2 3-cytokine-producing cell” value [3] was 3/10, the “Increase, IFNγ 1-cytokine-producing cell” value [3] was 2/10 and the “Increase, IFNγ/IL-2 2-cytokine-producing cell” value [3] was 1/10. The “Increase, IFNγ/TNFα 2-cytokine-producing cell” value [3] was 3/10, the “Increase, IFNγ/TNFα/IL2 3-cytokine-producing cell” value [3] was 1/10 and the “No Change, IFNγ 1-cytokine-producing cell” value [3] was 2/10. The “No Change, IFNγ/IL-2 2-cytokine-producing cell” value [3] was 5/10, the “No Change, IFNγ/TNFα 2-cytokine-producing cell” value [3] was 2/10 and the “No Change, IFNγ/TNFα/IL2 3-cytokine-producing cell” value [3] was 6/10. For the same compound, the “Decrease, IFNγ 1-cytokine-producing cell” value [4] was 4/10, the “Decrease, IFNγ/IL-2 2-cytokine-producing cell” value [4] was 5/10 and the “Decrease, IFNγ/TNFα 2-cytokine-producing cell” value [4] was 4/10. For the same compound, the “Decrease, IFNγ/TNFα/IL2 3-cytokine-producing cell” value [4] was 7/10, the “Increase, IFNγ 1-cytokine-producing cell” value [4] was 2/10 and the “Increase, IFNγ/IL-2 2-cytokine-producing cell” value [4] was 4/10. For the same compound, the “Increase, IFNγ/TNFα 2-cytokine-producing cell” value [4] was 4/10, the “Increase, IFNγ/TNFα/IL2 3-cytokine-producing cell” value [4] was 2/10 and the “No Change, IFNγ 1-cytokine-producing cell” value [4] was 4/10. For the same compound, the “No Change, IFNγ/IL-2 2-cytokine-producing cell” value [4] was 1/10, the “No Change, IFNγ/TNFα 2-cytokine-producing cell” value [4] was 2/10 and the “No Change, IFNγ/TNFα/IL2 3-cytokine-producing cell” value [4] was 1/10. The “Increase + No Change, IFNγ/TNFα/IL2, share of subjects” value (Total CD8T, Healthy Subjects) was 30%, the “Decrease, IFNγ 1-cytokine-producing cell” value [5] was 2/10 and the “Decrease, IFNγ/IL-2 2-cytokine-producing cell” value [5] was 6/10. The “Decrease, IFNγ/TNFα 2-cytokine-producing cell” value [5] was 5/10, the “Decrease, IFNγ/TNFα/IL2 3-cytokine-producing cell” value [5] was 7/10 and the “Increase + No Change, IFNγ/TNFα/IL2” value [5] was 3/10. The “Increase, IFNγ 1-cytokine-producing cell” value [5] was 4/10, the “Increase, IFNγ/IL-2 2-cytokine-producing cell” value [5] was 3/10 and the “Increase, IFNγ/TNFα 2-cytokine-producing cell” value [5] was 3/10. For the same compound, the “Increase, IFNγ/TNFα/IL2 3-cytokine-producing cell” value [5] was 0/10, the “No Change, IFNγ 1-cytokine-producing cell” value [5] was 4/10 and the “No Change, IFNγ/IL-2 2-cytokine-producing cell” value [5] was 1/10. The “No Change, IFNγ/TNFα 2-cytokine-producing cell” value [5] was 2/10, the “No Change, IFNγ/TNFα/IL2 3-cytokine-producing cell” value [5] was 3/10 and the “CD8^+T cells capable of simultaneously producing IFNγ, TNFα and IL-2, treated with metformin” value (healthy subjects, FIG. 2, untreated with metformin 0.11%) was 0.09%. The “ratio of CD8^+T cells producing one kind of cytokine (IFNγ) to the entire CD8^+T cells, metformin” value [6] was 13.18% and 16.70% and 8.18% and 11.64% and 4.62% and 1.68% and 6.23% and 0.95% and 1.87% and 12.00%, the “ratio of CD8^+T cells producing two kinds of cytokines (IFNγ/IL-2) to the entire CD8^+T cells, metformin” value [6] was 0.47% and 0.48% and 0.71% and 0.28% and 0.15% and 0.03% and 0.21% and 0.05% and 0.14% and 0.24% and the “ratio of CD8^+T cells producing two kinds of cytokines (IFNγ/TNFα) to the entire CD8^+T cells, metformin” value [6] was 31.38% and 3.54% and 32.26% and 11.52% and 16.84% and 1.50% and 11.17% and 0.12% and 1.08% and 3.98%. The “change of IFNγ producing CD8^+T cell ratio by metformin treatment vs control” value [7] was “→ (other cases with no significant differences); also recorded: ↑ (a 10% or more increase by a metformin treatment); also recorded: ↓ (a 10% or more decrease by a metformin treatment)”, the “change of IFNγ/IL-2 producing CD8^+T cell ratio by metformin treatment vs control” value [7] was “↓ (a 10% or more decrease by a metformin treatment); also recorded: ↑ (a 10% or more increase by a metformin treatment); also recorded: → (other cases with no significant differences)” and the “change of IFNγ/TNFα producing CD8^+T cell ratio by metformin treatment vs control” value [7] was “↓ (a 10% or more decrease by a metformin treatment); also recorded: ↑ (a 10% or more increase by a metformin treatment); also recorded: → (other cases with no significant differences)”. For the same compound, the “multifunctionality of CD8^+T cells by a metformin treatment” value (healthy subjects, judgement from FIG. 2) was “not increased”, the “decrease in multifunctionality (three kinds of cytokines), share of subjects” value [8] was 70% and the “increase in multifunctionality (three kinds of cytokines), share of subjects” value [8] was 0%.
